The values below come from PMC9475448, “What a difference a methylene makes: replacing Glu with Asp or Aad in the Lys-urea-Glu pharmacophore of PSMA-targeting radioligands to reduce kidney and salivary gland uptake” (Theranostics, 2022).

Read-outs that look alike come from different tables or passages of the source.

Data set [1] addresses T1, PSMA (Homo sapiens, UniProt Q04609).
T1 construct: LNCaP cells (400,000/well) were plated onto a 24-well poly-D-lysine coated plate for 48 h; endogenous in cells; host or cells: LNCaP prostate cancer cells
More on the design: method as in PMID 30097503. Conditions: read-out: Ki (PSMA inhibitor); cited from earlier work.

The test system of data set [2] is mouse model. The conditions noted are these: up to 657 mg/kg; cited from earlier work.
In data set [3] the target is T1, PSMA. More on the design: method as in PMID 30251544. The conditions noted are these: same assay conditions, reported previously; cited from earlier work.
Data set [4] relates to mouse kidneys and salivary glands. Further details: method as in PMID 32859704. Conditions: 1h post-injection; cited from earlier work.
For data set [5] the test system is unchanged. Description: Biodistribution of previously reported [68Ga]Ga-HTK03041 in mice. The data set is classed as in vivo. Conditions: 1h post-injection, unreported data of the earlier study.
In data set [6] the test system is parotid gland. The conditions noted are these: in vivo; cited from earlier work.

T1 sequence (Q04609 whole entry): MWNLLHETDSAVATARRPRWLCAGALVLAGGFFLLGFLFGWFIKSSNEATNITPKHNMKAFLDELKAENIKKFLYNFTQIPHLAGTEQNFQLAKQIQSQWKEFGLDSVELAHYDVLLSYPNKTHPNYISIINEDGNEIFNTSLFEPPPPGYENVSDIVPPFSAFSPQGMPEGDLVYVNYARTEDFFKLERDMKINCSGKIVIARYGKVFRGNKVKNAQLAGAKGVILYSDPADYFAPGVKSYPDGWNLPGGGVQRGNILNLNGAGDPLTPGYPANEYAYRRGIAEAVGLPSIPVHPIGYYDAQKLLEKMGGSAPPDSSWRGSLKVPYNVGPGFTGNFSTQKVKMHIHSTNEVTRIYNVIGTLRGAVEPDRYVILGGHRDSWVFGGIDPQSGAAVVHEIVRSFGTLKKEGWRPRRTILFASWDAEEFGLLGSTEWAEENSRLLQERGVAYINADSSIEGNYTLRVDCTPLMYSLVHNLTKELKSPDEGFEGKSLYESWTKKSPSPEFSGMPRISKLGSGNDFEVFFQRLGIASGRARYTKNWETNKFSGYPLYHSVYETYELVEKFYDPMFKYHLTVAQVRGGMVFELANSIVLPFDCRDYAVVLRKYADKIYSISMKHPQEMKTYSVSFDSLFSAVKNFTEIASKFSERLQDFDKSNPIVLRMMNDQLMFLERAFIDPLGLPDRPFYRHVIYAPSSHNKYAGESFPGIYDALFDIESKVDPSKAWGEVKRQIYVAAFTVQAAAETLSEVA

In the case of `N[C@@H](CCC(=O)O)C(=O)[O-].[Na+]` [monosodium glutamate], in data set [1], the Ki is 900 nM. Also, the “Effect of pretreatment on [68Ga]Ga-PSMA-11 uptake” value in data set [2] was “reduced uptake of [^68Ga]Ga-PSMA-11 in salivary glands and kidneys but had no effect on tumor uptake”. In the case of `O=C([O-])CN1CCN(CC(=O)[O-])CCN(CC(=O)NCC2CCC(C(=O)N[C@@H](Cc3ccc4ccccc4c3)C(=O)NCCCC[C@H](NC(=O)N[C@@H](CCC(=O)O)C(=O)O)C(=O)O)CC2)CCN(CC(=O)[O-])CC1.[Lu+3]` (stereo partly drawn) [Lu-PSMA-617], the inhibitory constant (Ki) in data set [3] was 0.24 ± 0.06 nM.

In the case of `O=C([O-])CN1CCN(CC(=O)[O-])CCN(CC(=O)NCC2CCC(C(=O)NC(Cc3c4ccccc4cc4ccccc34)C(=O)NCCCCC(NC(=O)NC(CCC(=O)O)C(=O)O)C(=O)O)CC2)CCN(CC(=O)[O-])CC1.[68Ga+3]` (stereo not drawn) [[^68Ga]Ga-HTK03041], the Kidney uptake in data set [4] is recorded as 170±26.4 %IA/g. The Salivary gland uptake in data set [5] was 4.99±0.88 %IA/g.

As for botulinum toxin A, in data set [6], the “Reduction in SUVmean of the treated parotid gland in [68Ga]Ga-PSMA-11 scan vs baseline” value is listed as “up to 64%”.

What is called Ki is a measure of affinity in units of concentration, obtained from inhibition or displacement.
